Measurements: ChEMBL document CHEMBL5335792, “Chemical exploration of TGR5 functional hot-spots: Synthesis and structure-activity relationships of C7- and C23-Substituted cholic acid derivatives” (Eur J Med Chem, 2023)

Test: physchem
Details: 0.15 M sodium salt

## C[C@H](CCC(=O)O)[C@H]1CC[C@H]2[C@@H]3[C@H](O)C[C@@H]4C[C@H](O)CC[C@]4(C)[C@H]3C[C@H](O)[C@]12C [CHOLIC ACID]
  solubility: 12 mM
